# Conditions: screened with a sieve (1.00 mm, No. 18), poured into glass graduated measuring cylinder, apparent volume
# Method: The tops were scraped flat. The apparent volumes were recorded. The bulk densities were calculated.
structure (smiles),measurement,value
"NC(=O)c1ccc[n+]([C@@H]2O[C@H](COP(=O)([O-])O)[C@@H](O)[C@H]2O)c1 [Form 1, nicotinamide mononucleotide anhydrous crystal (form 1)]",Bulk density,0.15 g/mL
